Measured values reported in ChEMBL document CHEMBL3769305, “Glucose-functionalized amino-OPEs as biocompatible photosensitizers in PDT” (Eur J Med Chem, 2016).

Experiment: Induction of singlet-oxygen generation at 5 x 10^-5 M irradiated at 380 nm by uric acid degradation assay
Format: physicochemical
Details: 0.38 µM; call rule not given here

For `COc1cc(C#Cc2cc(OC)c(C#Cc3cc(OC)c(C#CCO[C@@H]4O[C@H](CO)[C@@H](O)[C@H](O)[C@H]4O)cc3OC)cc2OC)c(OC)cc1C#CCO[C@@H]1O[C@H](CO)[C@@H](O)[C@H](O)[C@H]1O`, the Activity was “Not Active”.
